Experimental data: US8859559B2, “Substituted pyrazines and their use in the treatment of disease” (Boehringer Ingelheim International GmbH, priority 2011, dated 2014)

These molecules were tested against T1, ENaC (Epithelial Sodium Channel) (Mus musculus, UniProt Q61180+Q9WU38+Q9WU39) (assay: Ussing chamber: inhibition of amiloride sensitive short circuit current (I_sc) in M-1 cells). Conditions: mouse kidney M-1 cells.
T1 construct: Mouse kidney M-1 cells were cultivated in DMEM; endogenous in cells; host or cells: Mouse kidney M-1 cells (dexamethasone-treated, on transwell filters)
T1 sequence (Q61180 1-699): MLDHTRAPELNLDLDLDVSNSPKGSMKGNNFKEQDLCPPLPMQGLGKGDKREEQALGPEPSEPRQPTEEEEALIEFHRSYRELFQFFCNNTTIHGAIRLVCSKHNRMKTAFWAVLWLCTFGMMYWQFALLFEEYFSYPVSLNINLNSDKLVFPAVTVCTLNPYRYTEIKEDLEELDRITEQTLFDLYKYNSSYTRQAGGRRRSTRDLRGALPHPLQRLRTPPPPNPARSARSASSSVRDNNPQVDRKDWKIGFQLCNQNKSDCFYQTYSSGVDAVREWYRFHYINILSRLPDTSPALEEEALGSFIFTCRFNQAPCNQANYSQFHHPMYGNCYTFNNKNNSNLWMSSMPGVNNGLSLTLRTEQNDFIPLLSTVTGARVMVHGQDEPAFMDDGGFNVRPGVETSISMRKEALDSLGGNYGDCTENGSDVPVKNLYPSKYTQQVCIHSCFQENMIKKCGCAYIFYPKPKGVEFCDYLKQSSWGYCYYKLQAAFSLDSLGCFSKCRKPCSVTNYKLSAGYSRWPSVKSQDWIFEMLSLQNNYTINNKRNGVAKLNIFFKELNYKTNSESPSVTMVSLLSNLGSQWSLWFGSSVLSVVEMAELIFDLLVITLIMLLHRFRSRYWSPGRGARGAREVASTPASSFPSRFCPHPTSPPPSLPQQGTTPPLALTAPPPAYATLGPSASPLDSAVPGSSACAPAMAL
T1 sequence (Q9WU38 1-638): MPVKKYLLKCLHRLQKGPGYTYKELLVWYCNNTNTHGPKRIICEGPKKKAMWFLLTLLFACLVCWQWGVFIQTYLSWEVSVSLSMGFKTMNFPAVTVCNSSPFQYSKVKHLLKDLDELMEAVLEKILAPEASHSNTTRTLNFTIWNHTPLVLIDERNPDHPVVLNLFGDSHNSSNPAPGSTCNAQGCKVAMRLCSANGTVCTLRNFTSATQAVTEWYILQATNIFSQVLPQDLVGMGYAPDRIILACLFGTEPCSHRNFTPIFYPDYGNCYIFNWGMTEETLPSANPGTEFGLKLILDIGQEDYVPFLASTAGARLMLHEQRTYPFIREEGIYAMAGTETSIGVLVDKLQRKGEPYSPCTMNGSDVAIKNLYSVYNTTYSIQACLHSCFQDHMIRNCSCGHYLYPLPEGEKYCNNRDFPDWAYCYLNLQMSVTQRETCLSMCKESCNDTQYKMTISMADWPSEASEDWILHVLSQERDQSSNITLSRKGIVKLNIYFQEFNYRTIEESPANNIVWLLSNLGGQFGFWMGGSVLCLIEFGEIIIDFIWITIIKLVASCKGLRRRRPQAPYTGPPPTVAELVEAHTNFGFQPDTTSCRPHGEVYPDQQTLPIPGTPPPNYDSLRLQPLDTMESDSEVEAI
T1 sequence (Q9WU39 1-655): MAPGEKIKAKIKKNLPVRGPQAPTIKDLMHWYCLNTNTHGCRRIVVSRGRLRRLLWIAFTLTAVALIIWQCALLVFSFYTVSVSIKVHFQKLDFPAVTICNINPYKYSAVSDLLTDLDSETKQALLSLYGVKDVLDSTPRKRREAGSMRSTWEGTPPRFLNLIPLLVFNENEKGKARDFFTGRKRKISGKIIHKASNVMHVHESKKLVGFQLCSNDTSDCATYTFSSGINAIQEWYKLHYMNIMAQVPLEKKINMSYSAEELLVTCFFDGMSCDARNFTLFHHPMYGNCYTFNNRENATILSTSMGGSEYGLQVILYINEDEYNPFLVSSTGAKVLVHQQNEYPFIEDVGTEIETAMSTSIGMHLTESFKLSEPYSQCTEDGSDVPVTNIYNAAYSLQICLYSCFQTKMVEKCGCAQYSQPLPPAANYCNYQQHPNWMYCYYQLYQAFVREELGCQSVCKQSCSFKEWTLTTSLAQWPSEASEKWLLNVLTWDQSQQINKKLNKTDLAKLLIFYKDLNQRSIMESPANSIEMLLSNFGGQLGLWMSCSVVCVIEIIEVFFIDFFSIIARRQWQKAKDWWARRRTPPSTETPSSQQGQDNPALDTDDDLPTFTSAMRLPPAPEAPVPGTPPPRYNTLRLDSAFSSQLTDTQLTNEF
Format: cell-based
How it was run: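 Mouse kidney M-1 cells grown 10-12 days on transwell filters with 5 μM dexamethasone; I_sc recorded under voltage clamp at 37° C in Caco-2 transport buffer. Compounds added apically at 3 μM or 1-3-10 μM; 3 μM apical amiloride added at the end defines the amiloride-sensitive current; results as % inhibition of amiloride effect or IC50.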

Row | SMILES | IC50 [nM]
1 | [N-]=[N+]=NCCOCCOCCOCCOc1ccc(CN2CCC(NC(N)=NC(=O)c3nc(Cl)c(N)nc3N)CC2)cc1 [Example 1.18] | 7
2 | COC(=O)c1cccc(CN2CCC(NC(N)=NC(=O)c3nc(Cl)c(N)nc3N)CC2)c1 [Example 1.36] | 3
3 | N/C(=N\C(=O)c1nc(Cl)c(N)nc1N)NC1CCN(Cc2ccc(C(=O)NCCOCCO)cc2)CC1 [Example 1.54] | 4
4 | CC(C)(C)OC(=O)c1ccc(CN2CCC[C@H](NC(N)=NC(=O)c3nc(Cl)c(N)nc3N)C2)cc1 [Example 1.59] | 227
5 | CC(C)(C)OC(=O)c1ccc(CN2CCC[C@@H](NC(N)=NC(=O)c3nc(Cl)c(N)nc3N)C2)cc1 [Example 1.61] | 47
6 | COC(=O)Cc1cccc(CN2CCC(NC(N)=NC(=O)c3nc(Cl)c(N)nc3N)CC2)c1 [Example 1.6] | 4

Second part, the molecule after the results:

Row | IC50 [nM] | SMILES
7 | 52 | NC(=NC(=O)c1nc(Cl)c(N)nc1N)NC1CCN(Cc2ccc(OCc3cn(CCOCCOCCOCCNC(=O)c4cc(OCCOCCOCCO)cc(OCCOCCOCCO)c4)nn3)cc2)CC1 [Example 5.8]
8 | 10 | NC(=NC(=O)c1nc(Cl)c(N)nc1N)NC1CCN(Cc2ccc(CCn3cc(COCCO)nn3)cc2)CC1 [Example 3.2]
9 | 12 | N/C(=N\C(=O)c1nc(Cl)c(N)nc1N)NC1CCN(Cc2ccc(C(=O)NCCCS(=O)(=O)O)cc2)CC1 [Example 2.1]
10 | 2 | [N-]=[N+]=NCCOCCOCCOCCn1cc(COc2ccc(CN3CCC(NC(N)=NC(=O)c4nc(Cl)c(N)nc4N)CC3)cc2)nn1 [Example 3.22]
11 | 14 | CN(Cc1cn(CCc2ccc(CN3CCC(NC(N)=NC(=O)c4nc(Cl)c(N)nc4N)CC3)cc2)nn1)C(=O)CCNCCOCCOCCOCCO [Example 5.2]
12 | 12 | NC(=NC(=O)c1nc(Cl)c(N)nc1N)NC1CCN(Cc2ccc(OCc3cn(CCOCCOCCOCCO)nn3)cc2)CC1 [Example 3.21]
